# In US4954504A, “N9 -cyclopentyl-substituted adenine derivatives having adenosine-2 receptor stimulating activity” (Ciba-Geigy Corporation, priority 1988, dated 1990):
# Where a name gives a salt, the structure may show the parent alone.
# Tested on: collagen-induced platelet aggregation
# Assay: Inhibition of collagen-induced platelet aggregation in human plasma
# Format: cell-based
smiles,measurement,value
"CCNC(=O)[C@H]1C[C@@H](n2cnc3c(N)nc(NCCc4ccc(CCC(=O)O)cc4)nc32)[C@H](O)[C@@H]1O (relative stereo) [Example 7a, 2-alpha,3-alphadihydroxy-4β-[2-(p-carboxyethyl-phenethylamino)-9-adenyl]-cyclopentane-1β-N-ethylcarboxamide hydrochloride]",IC50,~1500 nM
